Literature values, collected in patent US20040087563A1, “Hormone replacement therapy with cardiovascular protection using antialdosteronic progestins” (priority 2002, published 2004).

What was measured:
[1] = biological target: T1, mineralocorticoid receptor (Homo sapiens, UniProt P08235); details: compared with spironolactone
T1 sequence (P08235 1-984): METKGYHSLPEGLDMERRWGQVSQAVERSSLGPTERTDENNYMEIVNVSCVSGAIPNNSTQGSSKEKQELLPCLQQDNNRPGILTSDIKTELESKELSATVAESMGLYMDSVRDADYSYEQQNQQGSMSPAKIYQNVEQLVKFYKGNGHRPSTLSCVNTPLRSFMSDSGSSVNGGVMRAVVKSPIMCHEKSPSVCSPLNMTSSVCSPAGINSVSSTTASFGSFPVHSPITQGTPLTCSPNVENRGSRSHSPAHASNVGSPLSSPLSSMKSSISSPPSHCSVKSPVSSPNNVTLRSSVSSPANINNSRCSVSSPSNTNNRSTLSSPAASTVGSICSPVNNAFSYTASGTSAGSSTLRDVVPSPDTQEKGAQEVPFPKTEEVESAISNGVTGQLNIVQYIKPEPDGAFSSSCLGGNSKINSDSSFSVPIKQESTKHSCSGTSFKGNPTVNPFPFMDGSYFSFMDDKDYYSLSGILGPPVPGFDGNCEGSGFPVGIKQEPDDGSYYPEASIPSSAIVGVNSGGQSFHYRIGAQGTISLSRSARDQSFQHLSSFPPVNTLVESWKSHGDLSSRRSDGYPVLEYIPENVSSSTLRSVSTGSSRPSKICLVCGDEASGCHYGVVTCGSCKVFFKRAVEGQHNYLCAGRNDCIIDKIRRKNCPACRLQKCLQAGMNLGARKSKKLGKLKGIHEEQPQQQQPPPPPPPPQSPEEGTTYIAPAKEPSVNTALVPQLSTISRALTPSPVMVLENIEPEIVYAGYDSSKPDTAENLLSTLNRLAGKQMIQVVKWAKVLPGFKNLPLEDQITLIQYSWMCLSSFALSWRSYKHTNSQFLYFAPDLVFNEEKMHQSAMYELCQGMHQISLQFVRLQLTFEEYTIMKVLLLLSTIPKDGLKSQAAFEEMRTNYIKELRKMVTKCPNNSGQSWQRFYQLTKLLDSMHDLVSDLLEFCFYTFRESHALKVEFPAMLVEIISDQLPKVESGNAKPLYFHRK

[2] = system: renin-angiotensin-aldosterone system; details: healthy female volunteers
[3] = patients with severe heart failure already receiving ACE inhibitor therapy

Structure (SMILES) | potency relative to spironolactone (antimineralocorticoid activity) [1] | plasma aldosterone levels [2] | morbidity and mortality [3]
C[C@]12CCC(=O)C=C1[C@@H]1C[C@@H]1[C@H]1[C@@H]3[C@@H]4C[C@@H]4[C@@]4(CCC(=O)O4)[C@@]3(C)CC[C@@H]12 [Drospirenone, 6β,7β;15β;16β-dimethylene-3-oxo-17α-preg-4-ene-21, 17-carbolactone] | about 8 times | increased | 
CC(=O)S[C@@H]1CC2=CC(=O)CC[C@]2(C)[C@H]2CC[C@@]3(C)[C@@H](CC[C@@]34CCC(=O)O4)[C@H]12 [Spironolactone, 17-hydroxy-7-alpha-mercapto-3-oxo-17-alpha-pregn-4-ene-21-carboxylic acid gamma-lactone acetate] |  |  | decrease the morbidity and mortality
